The source of these data is patent US11071550B2, “Methods and devices for treating pancreatitis” (priority 2017, dated 2021).

The test system of series [1] is monkey pancreas. The following applies: 1% acetic acid.
Source text: Cynomologus monkeys can be used to study the retrograde infusion protocol in primates. […] The Cynomologus monkeys are first quarantined for 30 days, then transferred to the primate facility and given a 1 to 2-week acclimatization period before operating. After acclimatization, the animals undergo a laparotomy and duodenotomy with cannulation of the ampulla of Vater and temporary clamping of the common bile duct to prevent perfusion of the liver (additional details below).
Fluoroscopic dye can also be infused to confirm the location and positioning of the catheter (FIGS. 12A and 12B). […] The catheter and clamp are then removed and the surgery completed.
Cynomologus infusion procedure details: After induction of general anesthesia, the abdomen is prepped and draped and a 10 to 12 centimeter upper abdominal midline incision created. The duodenum is fully mobilized out of the retroperitoneum and a non-crushing clamp applied to the common bile duct to prevent the composition from perfusing the bile duct and liver. A two centimeter duodenotomy is then created to expose the ampulla of Vater, which is cannulated with a 2.8 French double lumen umbilical artery catheter. A clamp is then placed on the minor papilla and catheter to prevent back leaking of the composition. […]
During the 3 to 6-week period between the procedure and the sacrifice, Cynomologus monkeys are supplied with CREON enzymes as a dietary supplement to avoid malabsorption due to loss of acinar enzyme production by the pancreas. […] Throughout the 3 to 6-week period, the Cynomologus monkeys are monitored for scleral icterus as a sign of possible biliary obstruction due to bile duct structuring caused by the infusion.
At harvest, the pancreas and duodenum are examined grossly in situ, and then removed en bloc along with the common bile duct. […] In addition, beta cell mass is calculated based on the percent insulin positive area on histology along with the gross weight of the pancreas.
For series [2], the system named is mouse pancreas.
Series [3] deals with ligated tail of the pancreas. The source says: Mouse pancreatic duct ligation (PDL) yields a model that is reflective of chronic pancreatitis with progressive loss of islet tissue. In the PDL procedure, the pancreatic duct is ligated at the mid-point of the pancreas (FIG. 4, right image). Thus, only the distal half (tail) of the pancreas is affected since the ligation is positioned at the mid-point of the duct. […] FIGS. 5A-5E show insulin staining using DAB, whereas FIGS. 5F-5J show insulin and amylase staining using immunofluorescence (with a Hoescht counterstain for labeling cell nuclei).
The negative effects of a pancreatitis milieu on β-cell function are well known (17).
Five repeats are analyzed in each condition. […] Significance is considered when p<0.05.

In series [4] the test system is Mouse islets. In words: In vitro static glucose stimulated insulin secretion (GSIS) of isolated islets.
Series [5] deals with mouse pancreas. This is another data set of the same source.
[6] abbreviates: 100% ethanol infused at 8 weeks post-PDL.
Setting [7] is: 100% ethanol, 1, 3, 6, 9 months.

As for `CC(=O)O` [acetic acid], in series [1] (e.g. 7 milliliters at 500 centimeters of water), the “recovery from the infusion procedure” value was “recover well”. In addition, in series [1] (three weeks after infusion), the “ablation of the exocrine pancreas” value was “ablation of the exocrine pancreas in the head and body of the pancreas, and part of the tail”; the “islets (H&E)” value is given as “intact islets”. In series [2] (1% acetic acid), the “immunohistochemistry of treated pancreatic tissue (insulin, amylase)” value was “insulin positive and amylase negative”; the “islets (histology)” value is “remained intact”; the “open field testing: rearing (time pressed) vs sham group” value is “not significantly different”. In series [2] (1% acetic acid, 6 months (FIG. 7)), the exocrine tissue entry is “ablation of the exocrine tissue”. Also, the pain entry in series [2] (1% acetic acid, conclusion from open field testing) was “does not cause pain”. Besides, the “open field testing: distance traveled vs sham group” value in series [2] (1% acetic acid, distance in meters) is recorded as “not significantly different”.

For the compound `CCO` [ethanol], in series [3] (setting [6]), the “loss of islets in the pancreatic tail” value is reported as “prevents the loss of islets in the pancreatic tail” and the recurrent inflammation entry was “no detectable recurrent inflammation”. Moreover, in series [3] (100% ethanol infused at 8 weeks post-PDL, insulin and amylase staining), the “regeneration of acinar cells” value is “no detectable regeneration of acinar cells”. Also, the “β-cell mass in the ligated tail” value in series [3] (PDL + ethanol infusion at 8 weeks, 24 weeks, mean±SEM) is 0.61±0.01 milligrams. For the same compound, in series [3] (PDL+ethanol-infused, 24 weeks), the “fasting blood glucose levels vs PDL and sham operated” value is listed as “no different”; the “glucose tolerance testing vs PDL and sham operated” value is on record as “no different”. Besides, the jaundice rates result in series [3] (male, C57BL/6, mouse, in vivo) is reported as “less than 5%”. In series [2] (Example 2, all time points), the “fasting glucose levels vs sham operated controls” value was “no difference” and the “glucose tolerance tests vs sham operated controls” value is listed as “no difference”. In addition, the “insulin secretion by islets from the pancreatic tail (in vitro GSIS)” value in series [4] (PDL+ethanol-infused tail islets, per 200 islets, low or high glucose, vs sham) is “normal insulin secretion pattern”. Besides, the “endocrine function: in vitro glucose-stimulated insulin secretion (GSIS)” value in series [4] (islets from 100% ethanol-infused mice, 9-month time point) is given as “appears normal”. Also, the “time to significant levels of ethanol in the blood after infusion” value in series [5] (100% ethanol pancreatic ductal infusion) was ≤ 5 min. Besides, in series [5] (100% ethanol, 100 microliters, sacrifice at 1, 3, 6, 9 months), the “pancreatic acinar tissue upon sacrifice” value is “no evidence of pancreatic acinar tissue”. Moreover, in series [5] (setting [7]), the “amylase (AMY) staining” value is “absent at all time points”; the “pancreatic endocrine tissue (β-cells and alpha cells)” value is “well-preserved”. Moreover, in series [5] (100% ethanol, 9-month time point), the “endocrine function: in vivo insulin levels during glucose tolerance testing” value is “appears normal”. The “islet vasculature (CD31 staining)” value in series [5] (100% ethanol, 9 months) is listed as “appears to be intact”. In series [5] (100% ethanol, all time points), the “fasting glucose levels vs sham-operated controls” value is reported as “no difference” and the “glucose tolerance tests vs sham-operated controls” value was “no difference”. Moreover, the “body weight vs controls” value in series [5] (100% ethanol, elemental diet) is “not different from controls”. Besides, the “β-cell mass vs sham-operated” value in series [5] (100% ethanol, pancreatic tail, any time point) is recorded as “no significant difference”.
